Data on eleven compounds can be found in patent US4728650A, “3,4-dihydrobenzopyran derivatives and medicinal uses thereof” (Kuraray Co., Ltd., priority 1985, dated 1988).

A short description of the experiment: Expectorant action: tracheal secretion of fluorescein sodium in rats. The format is in vivo, Wistar rats (male). Particulars: 50 mg/kg oral. The method, then:
Male Wistar rats (body weights, 280-320 g) were used in groups of 7 animals. Each test compound was orally administered in dose of 50 mg/kg body weight to rats. Immediately after administration, 0.3 ml/100 g (body weight of rat) of a 1% aqueous solution of fluorescein sodium was injected into the caudal vein. One hour after administration of the test compound, pentobarbital sodium 100 mg/kg (body weight of rat) was injected intraperitoneally so that deep anesthesia might cause the rat to die. Then, the trachea was exposed and an incision was made in the trachea. A sonde was inserted thereinto and ligation was made. To the sonde was connected a syringe containing 10 ml of a 5% solution of sodium hydrogen carbonate kept at 37° C. and 4 ml of the solution of sodium hydrogen carbonate was injected into the lung. After 5 minutes, the fluid in the lung was removed. After this procedure of injection and removal was repeated three times, the fluid removed from the lung was filtered and the filtrate was made up with water to make 20 ml. The intensity of fluroescence was determined at the excitation wave length of 491 nm and the fluorescence wave length of 510 nm using a spectrophotometer (HITACHI model 650-10, Hitachi, Ltd.). The amount of fluorescein sodium secreted into the trachea was estimated from the intensity of fluorescence. Each test compound was administered as suspended in a gum arabic solution in concentration of 5%.

For the compound `COc1ccc(CN2CCN(C(=O)CC3(C)CCc4c(C)c(OC)c(C)c(C)c4O3)CC2)c(OC)c1OC` (centres unmarked) [Compound (28), 1-[(3,4-Dihydro-6-methoxy-2,5,7,8-tetramethyl-2H-benzopyran-2-yl)acetyl]-4-(2,3,4-trimethoxybenzyl)piperazine], the “Secretory amount (mean ± S.E.)” value (Table 14, control 1.60 ± 0.18) is listed as 3.28 ± 0.31 μg/100 g (body weight of rat)/.

As for `COc1c(C)c(C)c2c(c1C)CCC(C)(CCN1CCN(C(=O)c3ccccc3)CC1)O2` (centres unmarked) [Compound (32), 1-Benzoyl-4-[2-(3,4-dihydro-6-methoxy-2,5,7,8-tetramethyl-2H-benzopyran-2-yl)ethyl]piperazine], where the note is “Table 13, control 5.30 ± 0.40”, the “Secretory amount (mean ± S.E.)” value is 5.43 ± 0.72 μg/100 g (body weight of rat)/.

For `COc1ccc(C(=O)N2CCN(CCCC3(C)CCc4c(C)c(OC)c(C)c(C)c4O3)CC2)cc1` (centres unmarked) [Compound (27), 1-[3-(3,4-Dihydro-6-methoxy-2,5,7,8-tetramethyl-2H-benzopyran-2-yl)propyl]-4-(4-methoxybenzoyl)piperazine], the “Secretory amount (mean ± S.E.)” value (Table 15, control 5.20 ± 0.78) is reported as 6.45 ± 0.72 μg/100 g (body weight of rat)/.

`COc1ccc(CN2CCN(C(=O)CC3(C)CCc4cc(Cl)ccc4O3)CC2)c(OC)c1OC` (centres unmarked) [Compound (29), 1-[(6-Chloro-3,4-dihydro-2-methyl-2H-benzopyran-2-yl)acetyl]-4-(2,3,4-trimethoxybenzyl)piperazine]: the “Secretory amount (mean ± S.E.)” value (Table 13, control 5.30 ± 0.40) was 5.57 ± 0.36 μg/100 g (body weight of rat)/.

Turning to `COc1ccc2c(c1)OC(C)(CCN1CCN(C(=O)c3cc(OC)c(OC)c(OC)c3)CC1)CC2` (centres unmarked) [Compound (25), 1-[2-(3,4-Dihydro-7-methoxy-2-methyl-2H-benzopyran-2-yl)ethyl]-4-(3,4,5-trimethoxybenzoyl)piperazine], the “Secretory amount (mean ± S.E.)” value (Table 14, control 1.60 ± 0.18) is recorded as 3.08 ± 0.19 μg/100 g (body weight of rat)/.

On to `COc1c(C)c(C)c2c(c1C)CCC(C)(CCN1CCN(C(=O)c3ccncc3)CC1)O2` (centres unmarked) [Compound (23), 1-[2-(3,4-Dihydro-6-methoxy-2,5,7,8-tetramethyl-2H-benzopyran-2-yl)ethyl]-4-(4-pyridylcarbonyl)piperazine], for which the “Secretory amount (mean ± S.E.)” value (Table 15, control 5.20 ± 0.78) is 8.16 ± 1.03 μg/100 g (body weight of rat)/.

Take `COc1c(C)c(C)c2c(c1C)CCC(C)(CCN1CCN(C(=O)c3ccc(N(C)C)cc3)CC1)O2` (centres unmarked) [Compound (20), 1-[2-(3,4-Dihydro-6-methoxy-2,5,7,8-tetramethyl-2H-benzopyran-2-yl)ethyl]-4-(4-dimethylaminobenzoyl)piperazine]: the “Secretory amount (mean ± S.E.)” value (Table 15, control 5.20 ± 0.78) is recorded as 8.72 ± 1.45 μg/100 g (body weight of rat)/.

Take `COc1c(C)c(C)c2c(c1C)CCC(C)(CCN1CCN(C(=O)CCC=C(C)CCC=C(C)CCC=C(C)C)CC1)O2` (centres unmarked) [Compound (24), 1-[2-(3,4-Dihydro-6-methoxy-2,5,7,8-tetramethyl-2H-benzopyran-2-yl)ethyl]-4-(5,9,13-trimethyl-4,8,12-tetradecatrienoyl)piperazine]: where the note is “Table 14, control 1.60 ± 0.18”, the “Secretory amount (mean ± S.E.)” value is given as 2.74 ± 0.22 μg/100 g (body weight of rat)/.

For `COc1c(C)c(C)c2c(c1C)CCC(C)(CCN1CCN(CCO)CC1)O2` (centres unmarked) [Compound (35), 1-[2-(3,4-Dihydro-6-methoxy-2,5,7,8-tetramethyl-2H-benzopyran-2-yl)ethyl]-4-(2-hydroxyethyl)piperazine], for the setting “Table 16, control 6.455 ± 0.766”, the “Secretory amount (mean ± S.E.)” value was 10.297 ± 1.841 μg/100 g (body weight of rat)/.

For `COc1c(C)c(C)c2c(c1C)CCC(C)(CCN1CCN(C(=O)c3ccc(Br)cc3)CC1)O2` (centres unmarked) [Compound (22), 1-[2-(3,4-Dihydro-6-methoxy-2,5,7,8-tetramethyl-2H-benzopyran-2-yl)ethyl]-4-(4-bromobenzoyl)piperazine], the “Secretory amount (mean ± S.E.)” value (Table 15, control 5.20 ± 0.78) was 6.26 ± 0.32 μg/100 g (body weight of rat)/.

On to `COc1c(C)c(C)c2c(c1C)CCC(C)(CCN1CCN(C(=O)c3ccc([N+](=O)[O-])cc3)CC1)O2` (centres unmarked) [Compound (21), 1-[2-(3,4-Dihydro-6-methoxy-2,5,7,8-tetramethyl-2H-benzopyran-2-yl)ethyl]-4-(4-nitrobenzoyl)piperazine], for which the “Secretory amount (mean ± S.E.)” value (Table 15, control 5.20 ± 0.78) is on record as 5.89 ± 0.40 μg/100 g (body weight of rat)/.
